According to patent publication US6444617B1, “Fused-heterocycle dicarboxylic acid diamide derivatives or salts thereof, herbicide and usage thereof” (Nihon Nohyaku Co., Ltd., priority 1998, dated 2002):

Assays:
Type in all cases: in vivo
[1] = tested on: cleavers (Galium aparine L.), Ga; assay: Test Example 4: herbicidal effect on upland weeds after emergence; conditions: dosage 5 kg/ha; sprayed after emergence; judged 14 days after treatment
Procedure, shortened: (§1)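 Upland weeds and crop plants (soybean, wheat) are grown from seed in soil until they reach given leaf stages, then treated by spraying with the compound-containing agent; effects are judged two weeks later.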

[2] = tested on: forxtail grass (Alopecurus aequalis var. amurensis Ohwi), Am; assay: as above; conditions: dosage 5 kg/ha; sprayed after emergence; judged 14 days after treatment
Procedure, shortened: as §1

[3] = tested on: barnyard grass (Echinochloa crus-galli Beauv.), Ec; assay: as above; conditions: dosage 5 kg/ha; sprayed after emergence; judged 14 days after treatment
Procedure, shortened: as §1

[4] = tested on: bird's eye speedwell (Veronica persica Poir.), Vp; assay: as above; conditions: dosage 5 kg/ha; sprayed after emergence; judged 14 days after treatment
Procedure, shortened: as §1

[5] = tested on: cocklebur (Xanthium strumarium L.), Xs; assay: as above; conditions: dosage 5 kg/ha; sprayed after emergence; judged 14 days after treatment
Procedure, shortened: as §1

[6] = tested on: velvetleaf (Abutilon theophtasti L.), At; assay: as above; conditions: dosage 5 kg/ha; sprayed after emergence; judged 14 days after treatment
Procedure, shortened: as §1

soybean plant (So) = assay: Test Example 3: phytotoxicity to upland crop plants, treatment before emergence; conditions: dosage 5 kg/ha
Procedure, shortened: (§2)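 Crops treated before emergence with sprayed liquid preparation of compound (prescribed concentration). Day 14: phytotoxicity graded per criterion.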

wheat (Wh) = assay: as above; conditions: dosage 5 kg/ha
Procedure, shortened: as §2

soybean plant = assay: Test Example 4: phytotoxicity to upland crop plants, treatment after emergence; conditions: dosage 5 kg/ha, sprayed after emergence, judged 14 days after treatment
Procedure, shortened: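 Weeds and soybean grown in soil-filled vats to set leaf stages, then sprayed post-emergence with the compound at a prescribed concentration. Weed-killing rate and crop phytotoxicity judged 14 days after treatment.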

wheat = assay: as above; conditions: dosage 5 kg/ha, sprayed after emergence, judged 14 days after treatment
Procedure, shortened: as §1

[7] = tested on: barnyard grass (Echinochloa crus-galli Beauv.); assay: Test Example 1: herbicidal effect on paddy field weeds before emergence; conditions: Dosage 5 kg/ha
Procedure, shortened: (§3)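 Grading reflects percent control relative to untreated plots, evaluated three weeks post-application. Treatment was a soil application of compound solution, predetermined dose, made to paddy-state pots before weed seeds germinated.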

[8] = tested on: bulrush (Scirpus juncoides Roxb.); assay: as above; conditions: Dosage 5 kg/ha
Procedure, shortened: as §3

[9] = tested on: barnyard grass (Echinochloa crus-galli Beauv.); assay: Test Example 2: herbicidal effect on paddy field weeds after emergence; conditions: Dosage 5 kg/ha; one-leaved stage; 21 days after treatment
Procedure, shortened: (§4)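 Weeds in flooded paddy-soil pots were grown to the one-leaved stage, then the soil was treated with the compound solution at a set dosage.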

[10] = tested on: monochoria (Monochoria vaginalis Presl); assay: as above; conditions: Dosage 5 kg/ha; one-leaved stage; 21 days after treatment
Procedure, shortened: as §4

[11] = tested on: bulrush (Scirpus juncoides Roxb.); assay: as above; conditions: Dosage 5 kg/ha; one-leaved stage; 21 days after treatment
Procedure, shortened: as §4

[12] = tested on: cleavers (Galium aparine L.), Ga; assay: Test Example 3: herbicidal effect on upland weeds before emergence; conditions: dosage 5 kg/ha
Procedure, shortened: (§5)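 Herbicidal activity was rated from kill rate determined 14 days post-spray, the compound having been applied pre-emergence as a liquid agent.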

[13] = tested on: forxtail grass (Alopecurus aequalis var. amurensis Ohwi), Am; assay: as above; conditions: foxtail grass, dosage 5 kg/ha
Procedure, shortened: as §5

[14] = tested on: barnyard grass (Echinochloa crus-galli Beauv.), Ec; assay: as above; conditions: dosage 5 kg/ha
Procedure, shortened: as §5

[15] = tested on: bird's eye speedwell (Veronica persica Poir.), Vp; assay: as above; conditions: dosage 5 kg/ha
Procedure, shortened: as §5

[16] = tested on: cocklebur (Xanthium strumarium L.), Xs; assay: as above; conditions: dosage 5 kg/ha
Procedure, shortened: as §5

[17] = tested on: velvetleaf (Abutilon theophtasti L.), At; assay: as above; conditions: dosage 5 kg/ha
Procedure, shortened: as §5

`CCCNC(=O)c1nc2c(cc1C(=O)Nc1c(CC)ccc(Cl)c1CC)ncn2C` [compound 1269] was tested, and the “Herbicidal effect Ga” value [1] was 5 (Weed-killing rate is 100%.), the “Herbicidal effect Am” value [2] was 5 (Weed-killing rate is 100%.) and the “Herbicidal effect Ec” value [3] was 5 (Weed-killing rate is 100%.). The “Herbicidal effect Vp” value [4] was 5 (Weed-killing rate is 100%.), the “Herbicidal effect Xs” value [5] was 5 (Weed-killing rate is 100%.) and the “Herbicidal effect At” value [6] was 5 (Weed-killing rate is 100%.). For the same compound, the “Phytotoxicity So” value (soybean plant (So)) was 4 (Crop-killing rate is 90-99%.), the “Phytotoxicity Wh” value (wheat (Wh)) was 5 (Crop-killing rate is 100%.) and the “Phytotoxicity So” value (soybean plant) was 4 (Crop-killing rate is 90-99%.). The “Phytotoxicity Wh” value (wheat) was 5 (Crop-killing rate is 100%.), the “Pre-emergence treatment Barnyard grass (herbicidal effect)” value (shortened to “Pre-emergence treatment Barnyard grass”) [7] was 5 (Weed-killing rate is 100%.) and the “Pre-emergence treatment Bulrush (herbicidal effect)” value (from here on “Pre-emergence treatment Bulrush”) [8] was 5 (Weed-killing rate is 100%.). For the same compound, the “Post-emergence treatment Barnyard grass (herbicidal effect)” value (from here on “Post-emergence treatment Barnyard grass”) [9] was 5 (Weed-killing rate is 100%.), the “Post-emergence treatment Monochoria (herbicidal effect)” value (from here on “Post-emergence treatment Monochoria”) [10] was 5 (Weed-killing rate is 100%.) and the “Post-emergence treatment Bulrush (herbicidal effect)” value (from here on “Post-emergence treatment Bulrush”) [11] was 5 (Weed-killing rate is 100%.). For the same compound, the “Herbicidal effect Ga” value [12] was 5 (Weed-killing rate is 100%.), the “Herbicidal effect Am” value [13] was 5 (Weed-killing rate is 100%.) and the “Herbicidal effect Ec” value [14] was 5 (Weed-killing rate is 100%.). For the same compound, the “Herbicidal effect Vp” value [15] was 5 (Weed-killing rate is 100%.), the “Herbicidal effect Xs” value [16] was 5 (Weed-killing rate is 100%.) and the “Herbicidal effect At” value [17] was 5 (Weed-killing rate is 100%.).

`CCCNC(=O)c1nc2c(cc1C(=O)Nc1c(CC)ccc(Cl)c1CC)nc(C)n2C` [compound 1294] was tested, and the “Herbicidal effect Ga” value [1] was 5 (Weed-killing rate is 100%.), the “Herbicidal effect Am” value [2] was 5 (Weed-killing rate is 100%.) and the “Herbicidal effect Ec” value [3] was 5 (Weed-killing rate is 100%.). For the same compound, the “Herbicidal effect Vp” value [4] was 5 (Weed-killing rate is 100%.), the “Herbicidal effect Xs” value [5] was 5 (Weed-killing rate is 100%.) and the “Herbicidal effect At” value [6] was 5 (Weed-killing rate is 100%.). For the same compound, the “Phytotoxicity So” value (soybean plant (So)) was 4 (Crop-killing rate is 90-99%.), the “Phytotoxicity Wh” value (wheat (Wh)) was 5 (Crop-killing rate is 100%.) and the “Phytotoxicity So” value (soybean plant) was 4 (Crop-killing rate is 90-99%.). The “Phytotoxicity Wh” value (wheat) was 5 (Crop-killing rate is 100%.), the “Pre-emergence treatment Barnyard grass” value [7] was 5 (Weed-killing rate is 100%.) and the “Pre-emergence treatment Bulrush” value [8] was 5 (Weed-killing rate is 100%.). For the same compound, the “Post-emergence treatment Barnyard grass” value [9] was 5 (Weed-killing rate is 100%.), the “Post-emergence treatment Monochoria” value [10] was 5 (Weed-killing rate is 100%.) and the “Post-emergence treatment Bulrush” value [11] was 5 (Weed-killing rate is 100%.). For the same compound, the “Herbicidal effect Ga” value [12] was 5 (Weed-killing rate is 100%.), the “Herbicidal effect Am” value [13] was 5 (Weed-killing rate is 100%.) and the “Herbicidal effect Ec” value [14] was 5 (Weed-killing rate is 100%.). The “Herbicidal effect Vp” value [15] was 5 (Weed-killing rate is 100%.), the “Herbicidal effect Xs” value [16] was 5 (Weed-killing rate is 100%.) and the “Herbicidal effect At” value [17] was 5 (Weed-killing rate is 100%.).

For `CCNC(=O)c1nc2ccccc2nc1C(=O)Nc1c(CC)ccc(Cl)c1CC` [compound 1305], the “Herbicidal effect Ga” value [1] was 5 (Weed-killing rate is 100%.), the “Herbicidal effect Am” value [2] was 5 (Weed-killing rate is 100%.) and the “Herbicidal effect Ec” value [3] was 5 (Weed-killing rate is 100%.). For the same compound, the “Herbicidal effect Vp” value [4] was 5 (Weed-killing rate is 100%.), the “Herbicidal effect Xs” value [5] was 5 (Weed-killing rate is 100%.) and the “Herbicidal effect At” value [6] was 5 (Weed-killing rate is 100%.). The “Phytotoxicity So” value (soybean plant (So)) was 5 (Crop-killing rate is 100%.), the “Phytotoxicity Wh” value (wheat (Wh)) was 5 (Crop-killing rate is 100%.) and the “Phytotoxicity So” value (soybean plant) was 5 (Crop-killing rate is 100%.). For the same compound, the “Phytotoxicity Wh” value (wheat) was 5 (Crop-killing rate is 100%.), the “Pre-emergence treatment Barnyard grass” value [7] was 5 (Weed-killing rate is 100%.) and the “Pre-emergence treatment Bulrush” value [8] was 5 (Weed-killing rate is 100%.). For the same compound, the “Post-emergence treatment Barnyard grass” value [9] was 5 (Weed-killing rate is 100%.), the “Post-emergence treatment Monochoria” value [10] was 5 (Weed-killing rate is 100%.) and the “Post-emergence treatment Bulrush” value [11] was 5 (Weed-killing rate is 100%.). For the same compound, the “Herbicidal effect Ga” value [12] was 5 (Weed-killing rate is 100%.), the “Herbicidal effect Am” value [13] was 5 (Weed-killing rate is 100%.) and the “Herbicidal effect Ec” value [14] was 5 (Weed-killing rate is 100%.). For the same compound, the “Herbicidal effect Vp” value [15] was 5 (Weed-killing rate is 100%.), the “Herbicidal effect Xs” value [16] was 5 (Weed-killing rate is 100%.) and the “Herbicidal effect At” value [17] was 5 (Weed-killing rate is 100%.).

For `CCCNC(=O)c1nc2ccccc2nc1C(=O)Nc1c(CC)ccc(Cl)c1CC` [compound 1306], the “Herbicidal effect Ga” value [1] was 5 (Weed-killing rate is 100%.), the “Herbicidal effect Am” value [2] was 5 (Weed-killing rate is 100%.) and the “Herbicidal effect Ec” value [3] was 5 (Weed-killing rate is 100%.). The “Herbicidal effect Vp” value [4] was 5 (Weed-killing rate is 100%.), the “Herbicidal effect Xs” value [5] was 5 (Weed-killing rate is 100%.) and the “Herbicidal effect At” value [6] was 5 (Weed-killing rate is 100%.). The “Phytotoxicity So” value (soybean plant (So)) was 5 (Crop-killing rate is 100%.), the “Phytotoxicity Wh” value (wheat (Wh)) was 5 (Crop-killing rate is 100%.) and the “Phytotoxicity So” value (soybean plant) was 5 (Crop-killing rate is 100%.). For the same compound, the “Phytotoxicity Wh” value (wheat) was 5 (Crop-killing rate is 100%.), the “Pre-emergence treatment Barnyard grass” value [7] was 5 (Weed-killing rate is 100%.) and the “Pre-emergence treatment Bulrush” value [8] was 5 (Weed-killing rate is 100%.). For the same compound, the “Post-emergence treatment Barnyard grass” value [9] was 5 (Weed-killing rate is 100%.), the “Post-emergence treatment Monochoria” value [10] was 5 (Weed-killing rate is 100%.) and the “Post-emergence treatment Bulrush” value [11] was 5 (Weed-killing rate is 100%.). The “Herbicidal effect Ga” value [12] was 5 (Weed-killing rate is 100%.), the “Herbicidal effect Am” value [13] was 5 (Weed-killing rate is 100%.) and the “Herbicidal effect Ec” value [14] was 5 (Weed-killing rate is 100%.). For the same compound, the “Herbicidal effect Vp” value [15] was 5 (Weed-killing rate is 100%.), the “Herbicidal effect Xs” value [16] was 5 (Weed-killing rate is 100%.) and the “Herbicidal effect At” value [17] was 5 (Weed-killing rate is 100%.).

For `CCc1ccc(Cl)c(CC)c1NC(=O)c1nc2ccccc2nc1C(=O)NCC(C)C` [compound 1311], the “Herbicidal effect Ga” value [1] was 5 (Weed-killing rate is 100%.), the “Herbicidal effect Am” value [2] was 5 (Weed-killing rate is 100%.) and the “Herbicidal effect Ec” value [3] was 5 (Weed-killing rate is 100%.). The “Herbicidal effect Vp” value [4] was 5 (Weed-killing rate is 100%.), the “Herbicidal effect Xs” value [5] was 5 (Weed-killing rate is 100%.) and the “Herbicidal effect At” value [6] was 5 (Weed-killing rate is 100%.). The “Phytotoxicity So” value (soybean plant (So)) was 5 (Crop-killing rate is 100%.), the “Phytotoxicity Wh” value (wheat (Wh)) was 5 (Crop-killing rate is 100%.) and the “Phytotoxicity So” value (soybean plant) was 5 (Crop-killing rate is 100%.). The “Phytotoxicity Wh” value (wheat) was 5 (Crop-killing rate is 100%.), the “Pre-emergence treatment Barnyard grass” value [7] was 5 (Weed-killing rate is 100%.) and the “Pre-emergence treatment Bulrush” value [8] was 5 (Weed-killing rate is 100%.). The “Post-emergence treatment Barnyard grass” value [9] was 5 (Weed-killing rate is 100%.), the “Post-emergence treatment Monochoria” value [10] was 5 (Weed-killing rate is 100%.) and the “Post-emergence treatment Bulrush” value [11] was 5 (Weed-killing rate is 100%.). The “Herbicidal effect Ga” value [12] was 5 (Weed-killing rate is 100%.), the “Herbicidal effect Am” value [13] was 5 (Weed-killing rate is 100%.) and the “Herbicidal effect Ec” value [14] was 5 (Weed-killing rate is 100%.). The “Herbicidal effect Vp” value [15] was 5 (Weed-killing rate is 100%.), the “Herbicidal effect Xs” value [16] was 5 (Weed-killing rate is 100%.) and the “Herbicidal effect At” value [17] was 5 (Weed-killing rate is 100%.).
